PubChem BioAssay (NCI)
Where “and” joins values, the source holds several entries; their conditions need not be identical. Equal values may be shown once.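 Dose response: 5 concentrations. Exposure: 48 h. Format: 96-well plates. Endpoint: linear interpolation; highest concentration if not reached. GI50 is the concentration that inhibits growth by half. The concentration for full growth arrest is given as TGI.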

Legend:
Test in all cases: NCI anticancer screen, dose series, 48 h
[1] = system: DLD-1 colon
[2] = system: KM20L2 colon
[3] = system: LXFL 529 NSCLC
[4] = system: M19-MEL melanoma
[5] = system: SNB-78 CNS
[6] = system: MDA-MB-231 breast
[7] = system: MDA-MB-435
[8] = system: NCI/ADR-RES ovarian
[9] = system: PC-3 prostate
[10] = system: T-47D breast

SMILES | TGI [1] | TGI [2] | TGI [3] | TGI [4] | TGI [5] | GI50 [2] | TGI [6] | TGI [7] | TGI [8] | GI50 [9] | TGI [9] | TGI [10]
CC(=O)OCCc1cccnc1/C=N/O | > 100 µM | > 100 µM | > 100 µM | > 100 µM | > 100 µM |  |  |  |  |  |  | 
COc1ccc(N=Cc2cc(OC)c(OC)c(OC)c2)cc1 | > 100 µM | > 100 µM | > 100 µM | > 100 µM | > 100 µM |  |  |  |  |  |  | 
CCCCCCCCCCCCCCC1OC(=O)c2ccccc21 (stereo unspecified) | > 100 µM | > 100 µM | > 100 µM | > 100 µM | > 100 µM |  |  |  |  |  |  | 
CC1=CCCC(OC(N)=O)C1 (stereo unspecified) | > 100 µM | > 100 µM | > 100 µM | > 100 µM | > 100 µM |  |  |  |  |  |  | 
CC(=O)/C=C/c1cccc(N=S)c1 | 16.5 µM | 37 µM | 32.9 µM | 18.3 µM | > 100 µM |  |  |  |  |  |  | 
O=C(Nc1ccccc1[N+](=O)[O-])c1ccccc1 | > 100 µM | > 100 µM | > 100 µM | > 100 µM | > 100 µM |  |  |  |  |  |  | 
C/C(=N\NC(N)=S)c1ccc(C)cc1C | > 100 µM | > 100 µM | > 100 µM | > 100 µM | > 100 µM |  |  |  |  |  |  | 
O=c1c(Cl)c(Cl)cnn1-c1ccccc1 | 2.84 µM and 5.22 µM | 24.5 µM and 15.7 µM | 11.9 µM and 3.13 µM | 11.7 µM and 8.03 µM | 20.8 µM | 0.655 µM and 6.44 µM | 3.34 µM | 3.58 µM and 3.73 µM | 3.97 µM | 5.42 µM and 1.77 µM | 12 µM and 3.23 µM | 16.4 µM and 5.04 µM
COc1cc2c(c(O)c1C)C(=O)C(Cl)=CC2=O | 48.5 µM | 49.1 µM | 19.4 µM | 20.9 µM | 17.4 µM |  | 27.8 µM | 16.4 µM | 66.7 µM |  | 28.7 µM | 5.22 µM
Cc1c(C(=O)/C=C/c2cccc3ccccc23)[n+](=O)c2ccccc2n1[O-] | 23.3 µM | 27.9 µM | 20.6 µM | 26.4 µM | 47.8 µM |  |  |  |  |  |  | 
O=C(O/N=C1/CCC/C1=C\c1ccccc1)c1ccc([N+](=O)[O-])cc1 | > 100 µM | > 100 µM | > 100 µM | > 100 µM | > 100 µM |  |  |  |  |  |  | 
Cc1cc(C)nc(NS(=O)(=O)c2ccc(NC(=O)c3cccc4c(=O)c5ccccc5[nH]c34)cc2)n1 | 45.6 µM | 40.5 µM | > 100 µM |  | 48.6 µM |  |  |  |  |  |  | 
O=C1CC[C@H]2CNC(=O)C[C@H]2C1 | > 100 µM |  | > 100 µM | > 100 µM | > 100 µM |  |  |  |  |  |  | 
CC1=C[C@@H]2Cc3occc3C(C)(C)[C@@H]2CC1 | 32.8 µM | 33.8 µM | > 100 µM | 31.2 µM | 66.6 µM |  |  |  |  |  |  | 
O=C1Oc2cc3c(c4cccc1c24)OCN(c1ccc(Cl)cc1)C3 | > 54.2 µM | > 100 µM | 25 µM | > 57 µM | > 100 µM |  |  |  |  |  |  | 
Cc1cccc2c3ccc4c(c3n(C)c12)C(=O)C=CC4=O | > 100 µM |  | > 100 µM | > 100 µM | > 100 µM |  |  |  |  |  |  | 

SMILES | TGI [1] | TGI [2] | TGI [3] | TGI [4] | TGI [5] | GI50 [2] | TGI [6] | TGI [7] | TGI [8] | GI50 [9] | TGI [9] | TGI [10]
C[C@]12CCC(=O)C=C1CC[C@@H]1C2CC[C@]2(C)NC(=O)C(C#N)CC12 (stereo partly specified) | > 100 µM | > 100 µM | > 100 µM | > 100 µM | > 100 µM |  |  |  |  |  |  | 
CC(C)(C)C1=NC(S)NC(CCC(=O)Nc2ccccc2[N+](=O)[O-])=C1 (stereo unspecified) | > 100 µM | > 100 µM | > 100 µM | > 100 µM | > 100 µM |  |  |  |  |  |  | 
CCCCn1/c(=N/C(=S)N(C)C)ss/c1=N\C(=S)N(C)C | > 100 µM | > 100 µM | > 100 µM | > 100 µM | > 100 µM |  |  |  |  |  |  | 
O=[N+]([O-])c1ccc(NSc2ccccc2)cc1 | 64 µM | > 100 µM | 70.9 µM |  | > 100 µM |  |  |  |  |  |  | 
CC1(C)N=C(N)N=C(N)N1c1ccc(CCCCc2ccc(S(=O)(=O)F)cc2Cl)c(Cl)c1 | 118 µM | 163 µM |  |  | 48.6 µM |  | 82.3 µM | > 500 µM | 347 µM |  | 112 µM | 34.8 µM
Cc1nc2nnc(C)n2c2c1C(=O)Nc1ccccc1N2 | > 100 µM | > 100 µM | > 100 µM | > 100 µM | > 100 µM |  |  |  |  |  |  | 
O=C1NC(=O)C2C(=O)NC(=O)C1C2(c1ccccc1)c1ccc(Cl)cc1 (stereo unspecified) | > 100 µM | > 100 µM | > 100 µM | > 100 µM | > 100 µM |  |  |  |  |  |  | 
COc1cc([C@@H]2c3cc4c(cc3[C@@H](NC(=O)c3cccc([N+](=O)[O-])c3)C3COC(=O)[C@@H]32)OCO4)cc(OC)c1O (stereo partly specified) | > 67.9 µM | > 57.7 µM | > 100 µM | > 100 µM | > 100 µM |  |  |  |  |  |  | 
C[Si](C)(C)c1ccc(CC2(Cc3ccc([Si](C)(C)C)cc3)CCNC2)cc1 | 6.87 µM | 3.93 µM | 4.79 µM | 3.64 µM | 8.87 µM |  |  |  |  |  |  | 
COc1cc2c(cc1OC)C1C=NC(C(=O)O)(C2)c2ccccc21 (stereo unspecified) | > 100 µM | > 100 µM | > 100 µM | > 100 µM | > 100 µM |  |  |  |  |  |  | 
COc1ccc(/C=C(/C(=O)O)c2cc(OC)c(OC)c(OC)c2)cc1 | > 100 µM | 98.2 µM | > 100 µM | > 100 µM | > 100 µM |  |  |  |  |  |  | 
CN1CCCNCCN(CCc2ccccn2)CCCN(C)CC1 | > 100 µM | > 100 µM | > 100 µM | > 100 µM | > 100 µM |  |  |  |  |  |  | 
Cc1cccc(C(C)(C)C)c1NC(=O)C(=O)Cc1nc2ccccc2s1 | > 100 µM | > 100 µM | > 100 µM | > 100 µM | > 100 µM |  |  |  |  |  |  | 
c1ccc(-c2nnc(-c3nn(-c4ccccc4)c4nc5ccccc5nc34)o2)cc1 | > 100 µM | > 100 µM | > 100 µM | > 100 µM | > 100 µM |  |  |  |  |  |  | 
CC1CCC[P+](Cc2ccccc2)(c2ccccc2)CC1 (stereo unspecified) | > 100 µM | > 100 µM | > 100 µM | > 100 µM | > 100 µM |  |  |  |  |  |  | 
